Results as given in US12391686B2, “Compounds and uses thereof” (Foghorn Therapeutics Inc., priority 2019, dated 2025).

Target: T1, Nanoluciferase-BRD9 fusion protein (3×FLAG-NLuc-BRD9) in SYO-1 cells (Homo sapiens, UniProt Q9H8M2)
T1 construct: expressed in transfected cells; host or cells: SYO-1
T1 sequence (Q9H8M2 1-597): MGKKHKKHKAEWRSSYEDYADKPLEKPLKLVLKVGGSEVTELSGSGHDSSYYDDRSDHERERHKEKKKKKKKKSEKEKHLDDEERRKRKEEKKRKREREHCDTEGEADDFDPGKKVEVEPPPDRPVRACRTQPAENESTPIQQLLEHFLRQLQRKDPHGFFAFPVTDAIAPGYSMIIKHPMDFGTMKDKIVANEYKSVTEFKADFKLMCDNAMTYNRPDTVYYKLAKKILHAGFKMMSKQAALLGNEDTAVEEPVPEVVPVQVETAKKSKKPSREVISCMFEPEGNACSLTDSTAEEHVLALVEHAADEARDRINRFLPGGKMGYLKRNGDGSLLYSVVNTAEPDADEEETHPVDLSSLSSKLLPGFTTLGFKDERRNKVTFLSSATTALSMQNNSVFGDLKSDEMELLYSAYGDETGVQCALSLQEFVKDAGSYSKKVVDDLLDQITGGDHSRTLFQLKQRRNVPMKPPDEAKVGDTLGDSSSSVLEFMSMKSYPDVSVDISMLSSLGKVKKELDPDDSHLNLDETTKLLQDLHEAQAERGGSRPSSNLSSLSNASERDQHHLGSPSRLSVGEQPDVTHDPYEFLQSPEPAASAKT
Experiment: SYO1 BRD9 NanoLuc Degradation Assay
Assay type: cell-based
Settings: Table 6B; SYO-1 cells expressing 3×FLAG-NLuc-BRD9, 6 hours incubation, 1 μM top dose; read-out: SYO1 BRD9-NanoLuc degradation IC50
Experimental: Procedure: A stable SYO-1 cell line expressing 3×FLAG-NLuc-BRD9 was generated. On day 0 cells were seeded in 30 μL media into each well of 384-well cell culture plates. The seeding density was 8000 cells/well. On day 1, cells were treated with 30 nL DMSO or 30 nL of 3-fold serially DMSO-diluted compounds (10 points in duplicates with 1 μM as final top dose). Subsequently plates were incubated for 6 hours in a standard tissue culture incubator and equilibrated at room temperature for 15 minutes. Nanoluciferase activity was measured by adding 15 μL of freshly prepared Nano-Glo Luciferase Assay Reagent (Promega N1130), shaking the plates for 10 minutes and reading the bioluminescence using an EnVision reader.
Results: The Inhibition % was calculated using the following formula: % Inhibition=100×(LumHC−Lumsample)/(LumHC−LumLC). DMSO treated cells are employed as High Control (HC) and 1 μM of a known BRD9 degrader standard treated cells are employed as Low Control (LC).

DC50 | SMILES
< 10 nM | COc1cc(-c2cn(C)c(=O)c3cnc(N(C)C)cc23)cc(OC)c1CN1CC(C(C)N2CCC3(CC2)CN(c2ccc4c(c2)C(=O)N(C2CCC(=O)NC2=O)C4=O)C3)C1 (stereo not drawn) [Compound D110]
< 10 nM | COc1cc(-c2cn(C)c(=O)c3cnc(N(C)C)cc23)cc(OC)c1CN1CCC(C(=O)N2CCC3(CC2)CC(Oc2ccc4c(c2)C(=O)N(C2CCC(=O)NC2=O)C4=O)C3)C(OC)C1 (stereo not drawn) [Compound D111]
< 10 nM | CCc1cc(-c2cn(C)c(=O)c3cnc(N(C)C)cc23)cc(OC)c1CN1CCC(CN2CCC3(CC2)CC(Oc2ccc4c(c2)C(=O)N(C2CCC(=O)NC2=O)C4=O)C3)CC1 (stereo not drawn) [Compound D112]
< 10 nM | COc1cc(-c2cn(C)c(=O)c3cnc(N(C)C)cc23)cc(OC)c1CN1CCN(c2ccc3c(c2)C(=O)N(C2CCC(=O)NC2=O)C3)CC1 (stereo not drawn) [Compound D113]
< 10 nM | COc1cc(-c2cn(C)c(=O)c3cnc(N(C)C)cc23)cc(OC)c1CN1CCN(c2ccc3c(c2)CN(C2CCC(=O)NC2=O)C3=O)CC1 (stereo not drawn) [Compound D114]
< 10 nM | CCN(CC)c1cc2c(-c3cc(OC)c(CN4CCN(CCC5CCN(c6ccc7c(c6)C(=O)N(C6CCC(=O)NC6=O)C7=O)CC5)CC4)c(OC)c3)cn(C)c(=O)c2cn1 (stereo not drawn) [Compound D115]
< 10 nM | COc1cc(-c2cn(C)c(=O)c3cnc(N4CCC4)cc23)cc(OC)c1CN1CC(CN2CCC3(CC2)CN(c2ccc4c(c2)C(=O)N(C2CCC(=O)NC2=O)C4=O)C3)C1 (stereo not drawn) [Compound D116]
10 to 100 nM | COc1cc(-c2cn(C)c(=O)c3cnc(N(C)C)cc23)cc(OC)c1CN1CCC(CCCN2CCN(C3CCC(=O)NC3=O)C(=O)C2)CC1 (stereo not drawn) [Compound D117]
< 10 nM | COc1cc(-c2cn(C)c(=O)c3cnc(N(C)C)cc23)cc(OC)c1CN1CCC(C(=O)N2CCC3(CC2)CC(Oc2cc4c(cc2F)C(=O)N(C2CCC(=O)NC2=O)C4=O)C3)CC1 (stereo not drawn) [Compound D118]
10 to 100 nM | CN(C)c1cc2c(-c3cc(Cl)c(CN4CCC(CN5CCC6(CC5)CC(Oc5ccc7c(c5)C(=O)N(C5CCC(=O)NC5=O)C7=O)C6)CC4)c(Cl)c3)cn(C)c(=O)c2cn1 (stereo not drawn) [Compound D119]
< 10 nM | COc1cc(-c2cn(C)c(=O)c3cnc(N(C)C)cc23)cc(OC)c1CN1CCN(CCC2CCN(c3ccc4c(c3)C(=O)N(C3CCC(=O)NC3=O)C4)CC2)CC1 (stereo not drawn) [Compound D120]
< 10 nM | COc1cc(-c2cn(C)c(=O)c3cnc(N(C)C)cc23)cc(OC)c1CN1CCN(CCC2CCN(c3ccc4c(c3)CN(C3CCC(=O)NC3=O)C4=O)CC2)CC1 (stereo not drawn) [Compound D121]
< 10 nM | COc1cc(-c2cn(C3CC3)c(=O)c3cnc(N4CCC4)cc23)cc(OC)c1CN1CCC(N2CCN(c3ccc4c(c3)CN(C3CCC(=O)NC3=O)C4=O)CC2)CC1 (stereo not drawn) [Compound D122]
< 10 nM | CCn1cc(-c2cc(OC)c(CN3CCC(N4CCN(c5ccc6c(c5)CN(C5CCC(=O)NC5=O)C6=O)CC4)CC3)c(OC)c2)c2cc(N3CCC3)ncc2c1=O (stereo not drawn) [Compound D123]
< 10 nM | CCN(C)c1cc2c(-c3cc(OC)c(CN4CCN(CCC5CCN(c6ccc7c(c6)C(=O)N(C6CCC(=O)NC6=O)C7=O)CC5)CC4)c(OC)c3)cn(C)c(=O)c2cn1 (stereo not drawn) [Compound D124]
< 10 nM | COc1cc(-c2cn(C)c(=O)c3cnc(N(C)C)cc23)cc(OC)c1CN1CCC(CN2CCC3(CC2)CN(c2ccc4c(c2)C(=O)N(C2CCC(=O)NC2=O)C4=O)C3)CC1 (stereo not drawn) [Compound D125]
< 10 nM | COc1cc(-c2cn(C)c(=O)c3cnc(N4CCC4)cc23)cc(OC)c1CN1CCC2(CC1)CN(c1ccc3c(c1)C(=O)N(C1CCC(=O)NC1=O)C3=O)C2 (stereo not drawn) [Compound D126]
< 10 nM | COc1cc(-c2cn(C)c(=O)c3cnc(N(C)C)cc23)cc(OC)c1CN1CCC2(CC1)CN(c1ccc3c(c1)CN(C1CCC(=O)NC1=O)C3=O)C2 (stereo not drawn) [Compound D127]

DC50 | SMILES
< 10 nM | COc1cc(-c2cn(C)c(=O)c3cnc(N(C)C)cc23)cc(OC)c1CN1CCC2(CC1)CN(c1ccc3c(c1)C(=O)N(C1CCC(=O)NC1=O)C3)C2 (stereo not drawn) [Compound D128]
< 10 nM | COc1cc(-c2cn(C)c(=O)c3cnc(N(C)C)cc23)cc(OC)c1CN1CCC(CN2CCC3(CC2)CC(Oc2cc4c(cc2F)C(=O)N(C2CCC(=O)NC2=O)C4=O)C3)CC1 (stereo not drawn) [Compound D129]
< 10 nM | COc1cc(-c2cn(C)c(=O)c3cnc(N(C)C)cc23)cc(OC)c1CN1CCC(CN2CCC3(CC2)CC(Oc2ccc4c(c2)C(=O)N(C2CCC(=O)NC2=O)C4=O)C3)C(OC)C1 (stereo not drawn) [Compound D130]
< 10 nM | COc1cc(-c2cn(C)c(=O)c3cnc(N4CCC4)cc23)cc(OC)c1CN1CCC(N2CCN(c3ccc4c(c3)CN(C3CCC(=O)NC3=O)C4=O)CC2)CC1 (stereo not drawn) [Compound D131]
< 10 nM | COc1cc(-c2cn(C)c(=O)c3cnc(N(C)C)cc23)cc(OC)c1CN1CC(c2ccc3c(c2)C(=O)N(C2CCC(=O)NC2=O)C3=O)C1 (stereo not drawn) [Compound D132]
< 10 nM | COc1cc(-c2cn(C)c(=O)c3cnc(N(C)C)cc23)cc(OC)c1CC1CCN(c2ccc3c(c2)C(=O)N(C2CCC(=O)NC2=O)C3=O)CC1 (stereo not drawn) [Compound D133]
< 10 nM | C=CCn1cc(-c2cc(OC)c(CN3CCN(CCC4CCN(c5ccc6c(c5)C(=O)N(C5CCC(=O)NC5=O)C6=O)CC4)CC3)c(OC)c2)c2cc(N(C)C)ncc2c1=O (stereo not drawn) [Compound D134]
< 10 nM | C=CCCn1cc(-c2cc(OC)c(CN3CCN(CCC4CCN(c5ccc6c(c5)C(=O)N(C5CCC(=O)NC5=O)C6=O)CC4)CC3)c(OC)c2)c2cc(N(C)C)ncc2c1=O (stereo not drawn) [Compound D135]
< 10 nM | COc1cc(-c2cn(C)c(=O)c3cnc(N4CCC4)cc23)cc(OC)c1CN1CCC(CN2CCC3(CC2)CN(c2ccc4c(c2)C(=O)N(C2CCC(=O)NC2=O)C4=O)C3)CC1 (stereo not drawn) [Compound D136]
< 10 nM | COc1cc(-c2cn(C)c(=O)c3cnc(N4CCC4)cc23)cc(OC)c1CN1CC(Oc2ccc3c(c2)C(=O)N(C2CCC(=O)NC2=O)C3=O)C1 (stereo not drawn) [Compound D137]
< 10 nM | COc1cc(-c2cn(C)c(=O)c3cnc(N(C)C)cc23)cc(OC)c1CN1CC(Oc2ccn3c(=O)n(C4CCC(=O)NC4=O)nc3c2)C1 (stereo not drawn) [Compound D138]
< 10 nM | C/C=C/n1cc(-c2cc(OC)c(CN3CCN(CCC4CCN(c5ccc6c(c5)C(=O)N(C5CCC(=O)NC5=O)C6=O)CC4)CC3)c(OC)c2)c2cc(N(C)C)ncc2c1=O (stereo not drawn) [Compound D139]
< 10 nM | CCc1cc(-c2cn(C)c(=O)c3cnc(N(C)C)cc23)cc(Cl)c1CN1CCC(CN2CCC3(CC2)CC(Oc2ccc4c(c2)C(=O)N(C2CCC(=O)NC2=O)C4=O)C3)CC1 (stereo not drawn) [Compound D140]
< 10 nM | COc1cc(-c2cn(C)c(=O)c3cnc(N4CCOCC4)cc23)cc(OC)c1CN1CCN(c2ccc3c(c2)C(=O)N(C2CCC(=O)NC2=O)C3=O)CC1 (stereo not drawn) [Compound D141]
< 10 nM | COc1cc(-c2cn(C)c(=O)c3cnc(N4CCC4)cc23)cc(OC)c1CN1CCC2(CC1)CN(c1ccc3c(c1)C(=O)N(C1CCC(=O)NC1=O)C3)C2 (stereo not drawn) [Compound D142]
< 10 nM | COc1cc(-c2cn(C)c(=O)c3cnc(N(C)C)cc23)cc(OC)c1CN1CC(CN2CCC3(CC2)CN(c2ccc4c(c2)CN(C2CCC(=O)NC2=O)C4=O)C3)C1 (stereo not drawn) [Compound D143]
< 10 nM | COc1cc(-c2cn(C)c(=O)c3cnc(N4CCOCC4)cc23)cc(OC)c1CN1CC(Oc2ccn3c(=O)n(C4CCC(=O)NC4=O)nc3c2)C1 (stereo not drawn) [Compound D144]
< 10 nM | COc1cc(-c2cn(C)c(=O)c3cnc(N(C)C)cc23)c(OC)cc1CN1CCN(CCC2CCN(c3ccc4c(c3)C(=O)N(C3CCC(=O)NC3=O)C4=O)CC2)CC1 (stereo not drawn) [Compound D145]
